These results are taken from patent US9695154B2, “Heteroaryl inhibitors of sumo activating enzyme” (MILLENNIUM PHARMACEUTICALS, INC., priority 2013, dated 2017).

The structures appear in SMILES notation.

For the assay, the target named is T1, recombinant human SAE enzyme (Homo sapiens, UniProt Q9UBT2).
T1 sequence (Q9UBT2 1-640): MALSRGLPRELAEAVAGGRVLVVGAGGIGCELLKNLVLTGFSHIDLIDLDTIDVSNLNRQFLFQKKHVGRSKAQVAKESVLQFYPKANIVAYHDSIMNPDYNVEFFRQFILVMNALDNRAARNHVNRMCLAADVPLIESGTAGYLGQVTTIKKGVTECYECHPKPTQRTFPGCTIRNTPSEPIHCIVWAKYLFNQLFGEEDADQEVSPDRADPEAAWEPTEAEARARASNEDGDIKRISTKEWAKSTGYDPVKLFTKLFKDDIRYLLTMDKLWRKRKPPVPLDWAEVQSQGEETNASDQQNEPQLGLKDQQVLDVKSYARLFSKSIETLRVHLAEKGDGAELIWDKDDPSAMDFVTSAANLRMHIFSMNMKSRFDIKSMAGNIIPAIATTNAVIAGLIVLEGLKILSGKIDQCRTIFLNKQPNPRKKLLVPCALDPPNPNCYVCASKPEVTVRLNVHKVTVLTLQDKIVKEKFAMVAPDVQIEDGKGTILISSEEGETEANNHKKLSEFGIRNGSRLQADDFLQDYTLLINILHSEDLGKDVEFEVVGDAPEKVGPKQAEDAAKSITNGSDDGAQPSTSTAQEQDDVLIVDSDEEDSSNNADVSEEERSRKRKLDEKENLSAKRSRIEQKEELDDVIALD
T1 sequence (Q9UBE0 1-346 partner): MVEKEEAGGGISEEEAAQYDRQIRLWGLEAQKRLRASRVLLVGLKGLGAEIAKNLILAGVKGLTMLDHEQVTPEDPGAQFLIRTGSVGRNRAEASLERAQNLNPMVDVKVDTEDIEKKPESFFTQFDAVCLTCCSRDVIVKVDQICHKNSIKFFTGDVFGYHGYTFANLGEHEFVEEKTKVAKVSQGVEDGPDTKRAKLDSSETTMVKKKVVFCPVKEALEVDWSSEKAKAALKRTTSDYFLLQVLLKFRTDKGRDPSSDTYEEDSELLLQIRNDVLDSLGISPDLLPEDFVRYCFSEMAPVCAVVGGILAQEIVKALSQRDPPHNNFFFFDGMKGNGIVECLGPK
Put plainly: SAE HTRF Enzyme Assay. The class given is biochemical. The following applies: for IC50: class symbols A-C; for inhibition at 0.111 µM: compound concentration 0.111 μM, read-out: Percent Inhibition. In outline:
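HTRF signal from Eu-anti-Flag/APC-anti-GST pairs reports Sumo-Flag loaded onto Ubc9-GST by 0.11 nM SAE. Reaction: 0.5 μM ATP, 0.125 μM Sumo-Flag, 0.01 μM Ubc9-GST, 5 mM MgCl2, pH 7.5, 105 min, 24° C. Single-concentration % inhibition or IC50 reported.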

On to `NS(=O)(=O)OC[C@H]1C[C@@H](Nc2ncncc2C(=O)c2ccn(Cc3ccc(F)c(Br)c3)n2)C[C@@H]1O` [Compound I-72, {(1R,2S,4R)-4-[(5-{[1-(3-bromo-4-fluorobenzyl)-1H-pyrazol-3-yl]carbonyl}pyrimidin-4-yl)amino]-2-hydroxycyclopentyl}methyl sulfamate], for which the IC50 was less than 0.01 µM and the inhibition at 0.111 µM turned out to be 100%.
As for `NS(=O)(=O)OC[C@H]1C[C@@H](Nc2ncncc2C(=O)c2ccn(Cc3cnc(C(F)(F)F)s3)c2)C[C@@H]1O` [Compound I-73, [(1R,2S,4R)-2-hydroxy-4-({5-[(1-{[2-(trifluoromethyl)-1,3-thiazol-5-yl]methyl}-1H-pyrrol-3-yl)carbonyl]pyrimidin-4-yl}amino)cyclopentyl]methyl sulfamate], the IC50 is less than 0.01 µM and the inhibition at 0.111 µM turned out to be 94%.
Taken in the same sequence, the figures for `COC(C)(C)C#CCn1ccc(C(=O)c2cncnc2N[C@@H]2C[C@H](COS(N)(=O)=O)[C@@H](O)[C@@H]2F)c1` [Compound I-75, {(1R,2R,3R,4R)-3-fluoro-2-hydroxy-4-[(5-{[1-(4-methoxy-4-methylpent-2-yn-1-yl)-1H-pyrrol-3-yl]carbonyl}pyrimidin-4-yl)amino]cyclopentyl}methyl sulfamate] were 0.01 to 0.1 µM and 68%.
Regarding `CC(C)(c1ccccc1)n1ccc(C(=O)c2cncnc2N[C@@H]2C[C@H](COS(N)(=O)=O)[C@@H](O)C2)c1` [Compound I-76, {(1R,2S,4R)-2-hydroxy-4-[(5-{[1-(2-phenylpropan-2-yl)-1H-pyrrol-3-yl]carbonyl}pyrimidin-4-yl)amino]cyclopentyl}methyl sulfamate], the IC50 fell in the range of 0.01 to 0.1 µM and the inhibition at 0.111 µM worked out at 80%.
The like results for `NS(=O)(=O)OC[C@H]1C[C@@H](Nc2ccncc2C(=O)c2ccn(Cc3ccc(Cl)c(Cl)c3)n2)C[C@@H]1O` [Compound I-78, {(1R,2S,4R)-4-[(3-{[1-(3,4-dichlorobenzyl)-1H-pyrazol-3-yl]carbonyl}pyridin-4-yl)amino]-2-hydroxycyclopentyl}methyl sulfamate] were, in that order, less than 0.01 µM and 97%.
On to `Cn1cccc(Cn2ccc(C(=O)c3cncnc3N[C@@H]3C[C@H](COS(N)(=O)=O)[C@@H](O)C3)n2)c1=O` [Compound I-80, [(1R,2S,4R)-2-hydroxy-4-{[5-({1-[(1-methyl-2-oxo-1,2-dihydropyridin-3-yl)methyl]-1H-pyrazol-3-yl}carbonyl)pyrimidin-4-yl]amino}cyclopentyl]methyl sulfamate], for which the IC50 was less than 0.01 µM and the inhibition at 0.111 µM came out at 96%.
The like results for `NS(=O)(=O)OC[C@H]1C[C@@H](Nc2ccncc2C(=O)c2ccn(Cc3cccc(Cl)c3)n2)[C@H](O)[C@@H]1O` [Compound I-81, {(1R,2R,3S,4R)-4-[(3-{[1-(3-chlorobenzyl)-1H-pyrazol-3-yl]carbonyl}pyridin-4-yl)amino]-2,3-dihydroxycyclopentyl}methyl sulfamate] were, in that order, less than 0.01 µM and 98%.
Taken in the same sequence, the figures for `NS(=O)(=O)OC[C@H]1C[C@@H](Nc2ncncc2C(=O)c2ccn(CC3CCCCC3)n2)[C@H](O)[C@@H]1O` [Compound I-82, {(1R,2R,3S,4R)-4-[(5-{[1-(cyclohexylmethyl)-1H-pyrazol-3-yl]carbonyl}pyrimidin-4-yl)amino]-2,3-dihydroxycyclopentyl}methyl sulfamate] were less than 0.01 µM and 96%.
Taken in the same sequence, the figures for `NS(=O)(=O)OC[C@H]1C[C@@H](Nc2ccncc2C(=O)c2ccn(Cc3cccc(OC(F)(F)F)c3)c2)C[C@@H]1O` [Compound I-83, [(1R,2S,4R)-2-Hydroxy-4-{[3-({1-[3-(trifluoromethoxy)benzyl]-1H-pyrrol-3-yl}carbonyl)pyridin-4-yl]amino}cyclopentyl]methyl sulfamate] were 0.01 to 0.1 µM and 88%.
Take `CC#Cc1cccc(Cn2ccc(C(=O)c3cncnc3N[C@@H]3C[C@H](COS(N)(=O)=O)[C@@H](O)C3)n2)c1` [Compound I-84, [(1R,2S,4R)-2-hydroxy-4-{[5-({1-[3-(prop-1-yn-1-yl)benzyl]-1H-pyrazol-3-yl}carbonyl)pyrimidin-4-yl]amino}cyclopentyl]methyl sulfamate]: the IC50 was less than 0.01 µM and the inhibition at 0.111 µM was 95%.
For `C#Cc1cccc(Cn2ccc(C(=O)c3cncnc3N[C@@H]3C[C@H](COS(N)(=O)=O)[C@@H](O)C3)n2)c1` [Compound I-85, {(1R,2S,4R)-4-[(5-{[1-(3-ethynylbenzyl)-1H-pyrazol-3-yl]carbonyl}pyrimidin-4-yl)amino]-2-hydroxycyclopentyl}methyl sulfamate], the IC50 was less than 0.01 µM and the inhibition at 0.111 µM was determined as 98%.
Taken in the same sequence, the figures for `NS(=O)(=O)OC[C@H]1C[C@@H](Nc2ncncc2C(=O)c2ccn(Cc3ccc(C(F)F)o3)c2)[C@@H](F)[C@@H]1O` [Compound I-87, [(1R,2R,3R,4R)-4-({5-[(1-{[5-(difluoromethyl)-2-furyl]methyl}-1H-pyrrol-3-yl)carbonyl]pyrimidin-4-yl}amino)-3-fluoro-2-hydroxycyclopentyl]methyl sulfamate] were less than 0.01 µM and greater than 99%.
In the case of `NS(=O)(=O)OC[C@H]1C[C@@H](Nc2ncncc2C(=O)c2ccn(Cc3c(F)cc(F)cc3F)n2)[C@H](O)[C@@H]1O` [Compound I-88, {(1R,2R,3S,4R)-2,3-dihydroxy-4-[(5-{[1-(2,4,6-trifluorobenzyl)-1H-pyrazol-3-yl]carbonyl}pyrimidin-4-yl)amino]cyclopentyl}methyl sulfamate], the IC50 was less than 0.01 µM and the inhibition at 0.111 µM is greater than 99%.
The like results for `NS(=O)(=O)OC[C@H]1C[C@@H](Nc2ncncc2C(=O)c2ccn(Cc3ccc(F)c(Cl)c3)n2)[C@H](O)[C@@H]1O` [Compound I-89, {(1R,2R,3S,4R)-4-[(5-{[1-(3-chloro-4-fluorobenzyl)-1H-pyrazol-3-yl]carbonyl}pyrimidin-4-yl)amino]-2,3-dihydroxycyclopentyl}methyl sulfamate] were, in that order, less than 0.01 µM and 98%.
The like results for `NS(=O)(=O)OC[C@H]1C[C@@H](Nc2ncncc2C(=O)c2cc(CO)n(Cc3cccc(Br)c3)n2)C[C@@H]1O` [Compound I-90, {(1R,2S,4R)-4-[(5-{[1-(3-Bromobenzyl)-5-(hydroxymethyl)-1H-pyrazol-3-yl]carbonyl}pyrimidin-4-yl)amino]-2-hydroxycyclopentyl}methyl sulfamate] were, in that order, less than 0.01 µM and 98%.
The like results for `NS(=O)(=O)OC[C@H]1C[C@@H](Nc2ncncc2C(=O)c2ccn(Cc3cc(F)ccc3F)n2)[C@H](O)[C@@H]1O` [Compound I-91, {(1R,2R,3S,4R)-4-[(5-{[1-(2,5-difluorobenzyl)-1H-pyrazol-3-yl]carbonyl}pyrimidin-4-yl)amino]-2,3-dihydroxycyclopentyl}methyl sulfamate] were, in that order, less than 0.01 µM and 98%.
Take `NS(=O)(=O)OC[C@H]1C[C@@H](Nc2ncncc2C(=O)c2ccn(Cc3ccc(F)c(Br)c3)n2)[C@@H](F)[C@@H]1O` [Compound I-92, {(1R,2R,3R,4R)-4-[(5-{[1-(3-bromo-4-fluorobenzyl)-1H-pyrazol-3-yl]carbonyl}pyrimidin-4-yl)amino]-3-fluoro-2-hydroxycyclopentyl}methyl sulfamate]: the concentration for half-maximal inhibition (IC50) is less than 0.01 µM and the inhibition at 0.111 µM amounted to 99%.
The like results for `NS(=O)(=O)OC[C@H]1C[C@@H](Nc2ncncc2C(=O)c2ccn(CC3CCCCC3)n2)C[C@@H]1O` [Compound I-93, {(1R,2S,4R)-4-[(5-{[1-(cyclohexylmethyl)-1H-pyrazol-3-yl]carbonyl}pyrimidin-4-yl)amino]-2-hydroxycyclocarbonyl}methyl sulfamate] were, in that order, less than 0.01 µM and 90%.
The like results for `NS(=O)(=O)OC[C@H]1C[C@@H](Nc2ncncc2C(=O)c2cc(C(F)(F)F)n(Cc3ccccc3)c2)[C@@H](F)[C@@H]1O` [Compound I-94, {(1R,2R,3R,4R)-4-[(5-{[1-Benzyl-5-(trifluoromethyl)-1H-pyrrol-3-yl]carbonyl}pyrimidin-4-yl)amino]-3-fluoro-2-hydroxycyclopentyl}methyl sulfamate] were, in that order, less than 0.01 µM and 97%.
